Experiments:
[1] = Plasma concentrations of flutamide active metabolite for up to 16 hours after administration of esters or flutamide; assay type: in vivo, rats; conditions: rat; for 0-16 hr (area under the plasma level curve of flutamide active metabolite) / Plasma concentration of flutamide active metabolite, 0.5 hr / Plasma concentration of flutamide active metabolite, 1 hr / Plasma concentration of flutamide active metabolite, 2 hr / Plasma concentration of flutamide active metabolite, 4 hr / Plasma concentration of flutamide active metabolite, 8 hr / Plasma concentration of flutamide active metabolite, 16 hr: normalized to a 5 mg/kg dose of flutamide active metabolite; for Plasma concentration of flutamide active metabolite, 0.5 hr / Plasma concentration of flutamide active metabolite, 1 hr / Plasma concentration of flutamide active metabolite, 2 hr / Plasma concentration of flutamide active metabolite, 4 hr / Plasma concentration of flutamide active metabolite, 8 hr / Plasma concentration of flutamide active metabolite, 16 hr: average of 3 animals; for Relative Rank (0-16 hr): 0-16 hr area relative to flutamide = 1.00
Protocol: Plasma concentrations of the flutamide active metabolite were determined by gas-liquid chromatography in 300-350 gram male Sprague Dawley rats following single oral 5 mg/kg doses of the compounds listed. […]

[2] = Plasma concentrations of flutamide active metabolite in rats after single oral doses of various esters (0-4 hours), gas-liquid chromatography; assay type: in vivo, male Sprague Dawley rats; conditions: rat; for Relative Rank (0-4 hour area): oral, 0-4 hour area relative to flutamide = 1.00; for Area under the 0-4 hour plasma level curve of flutamide active metabolite (0-4 Hours) / Plasma concentration of flutamide active metabolite, 2 Hours / Plasma concentration of flutamide active metabolite, 4 Hours: single oral dose, normalized to a 5 mg/kg dose of flutamide active metabolite; for Plasma concentration of flutamide active metabolite, 2 Hours / Plasma concentration of flutamide active metabolite, 4 Hours: average of 2 animals

0-16 hr (area under the plasma level curve of flutamide active metabolite) [1] [ng·h/mL] | Plasma concentration of flutamide active metabolite, 0.5 hr [1] [ng/mL] | Plasma concentration of flutamide active metabolite, 1 hr [1] [ng/mL] | Plasma concentration of flutamide active metabolite, 2 hr [1] [ng/mL] | Plasma concentration of flutamide active metabolite, 4 hr [1] [ng/mL] | Plasma concentration of flutamide active metabolite, 8 hr [1] [ng/mL] | Plasma concentration of flutamide active metabolite, 16 hr [1] [ng/mL] | Relative Rank (0-16 hr) [1] | Relative Rank (0-4 hour area) [2] | Area under the 0-4 hour plasma level curve of flutamide active metabolite (0-4 Hours) [2] [ng·h/mL] | Plasma concentration of flutamide active metabolite, 2 Hours [2] [ng/mL] | Plasma concentration of flutamide active metabolite, 4 Hours [2] [ng/mL] | Molecule
8270 | 210 | 322 | 614 | 722 | 649 | 236 | 1.00 | 1.00 | 2400 | 715 | 974 | CC(C)C(=O)Nc1ccc([N+](=O)[O-])c(C(F)(F)F)c1 [H (flutamide), 2-methyl-N-[4-nitro-3-(trifluoromethyl)phenyl]propanamide, reference compound]
 |  |  |  |  |  |  |  | 1.44 | 3450 | 1103 | 1248 | CN(CC(=O)OC(C)(C)C(=O)Nc1ccc([N+](=O)[O-])c(C(F)(F)F)c1)C(=O)CNC(=O)[C@@H](N)CCCCN [lys--gly--sar, L-lysyl-glycyl-N-methylglycine, [1-methyl-[[4-nitro-3-(trifluoromethyl)phenyl]aminocarbonyl]ethyl]ester]
 |  |  |  |  |  |  |  | 1.46 | 3510 | 1059 | 1393 | L-Proline-[1-methyl-[[4-nitro-3-trifluoromethyl)phenyl]aminocarbonyl]ethyl ]ester, hydrochloride

Second part, the molecule before the results:

Molecule | 0-16 hr (area under the plasma level curve of flutamide active metabolite) [1] [ng·h/mL] | Plasma concentration of flutamide active metabolite, 0.5 hr [1] [ng/mL] | Plasma concentration of flutamide active metabolite, 1 hr [1] [ng/mL] | Plasma concentration of flutamide active metabolite, 2 hr [1] [ng/mL] | Plasma concentration of flutamide active metabolite, 4 hr [1] [ng/mL] | Plasma concentration of flutamide active metabolite, 8 hr [1] [ng/mL] | Plasma concentration of flutamide active metabolite, 16 hr [1] [ng/mL] | Relative Rank (0-16 hr) [1] | Relative Rank (0-4 hour area) [2] | Area under the 0-4 hour plasma level curve of flutamide active metabolite (0-4 Hours) [2] [ng·h/mL] | Plasma concentration of flutamide active metabolite, 2 Hours [2] [ng/mL] | Plasma concentration of flutamide active metabolite, 4 Hours [2] [ng/mL]
CC(C)(OC(=O)[C@@H]1CCCN1C(=O)CNC(=O)[C@@H](N)CCCCN)C(=O)Nc1ccc([N+](=O)[O-])c(C(F)(F)F)c1.Cl.Cl [lys--gly--pro, L-lysyl-glycyl-L-proline-[1-methyl-[[4-nitro-3-(trifluoromethyl)phenyl]aminocarbonyl]ethyl]ester, dihydrochloride] | 15600 | 1392 | 1907 | 1751 | 1170 | 1054 | 256 | 1.89 | 2.66 | 6400 | 2277 | 1847
C[C@H](N)C(=O)NCC(=O)N(C)CC(=O)OC(C)(C)C(=O)Nc1ccc([N+](=O)[O-])c(C(F)(F)F)c1 [ala--gly--sar, L-alanyl-glycyl-N-methylglycine, [1-methyl-[[4-nitro-3-(trifluoromethyl)phenyl]aminocarbonyl]ethyl]ester] | 17200 | 1079 | 2029 | 1365 | 1803 | 1005 | 423 | 2.08 | 2.09 | 5020 | 1952 | 1115
CNCC(=O)OC(C)(C)C(=O)Nc1ccc([N+](=O)[O-])c(C(F)(F)F)c1 [sar] |  |  |  |  |  |  |  |  | 1.52 | 3650 | 1345 | 958

From patent US4921941A, “Orally active antiandrogens” (Schering Corporation, priority 1987, dated 1990)
